Experimental data taken from ChEMBL document CHEMBL5370693, “Kinases Controlling Stability of the Oncogenic MYCN Protein” (ACS Med Chem Lett, 2023).

How the values were obtained:
[1] = molecular target: Phosphatidylinositol 4,5-bisphosphate 3-kinase catalytic subunit gamma isoform (Homo sapiens) (UniProt P48736); experiment: Inhibition of PIK3CG (unknown origin) assessed as remaining activity at 15 uM incubated for 1 hr by KINOMEscan competitive binding assay relative to control
[2] = molecular target: Casein kinase II subunit alpha (Homo sapiens) (UniProt P68400); experiment: Inhibition of CSNK2A1 (unknown origin) assessed as remaining activity at 15 uM incubated for 1 hr by KINOMEscan competitive binding assay relative to control
[3] = molecular target: T1, Phosphatidylinositol 3-kinase C2 domain-containing subunit gamma (Homo sapiens) (UniProt O75747); experiment: Inhibition of PIK3C2G (unknown origin) assessed as remaining activity at 15 uM incubated for 1 hr by KINOMEscan competitive binding assay relative to control
T1 sequence (whole entry): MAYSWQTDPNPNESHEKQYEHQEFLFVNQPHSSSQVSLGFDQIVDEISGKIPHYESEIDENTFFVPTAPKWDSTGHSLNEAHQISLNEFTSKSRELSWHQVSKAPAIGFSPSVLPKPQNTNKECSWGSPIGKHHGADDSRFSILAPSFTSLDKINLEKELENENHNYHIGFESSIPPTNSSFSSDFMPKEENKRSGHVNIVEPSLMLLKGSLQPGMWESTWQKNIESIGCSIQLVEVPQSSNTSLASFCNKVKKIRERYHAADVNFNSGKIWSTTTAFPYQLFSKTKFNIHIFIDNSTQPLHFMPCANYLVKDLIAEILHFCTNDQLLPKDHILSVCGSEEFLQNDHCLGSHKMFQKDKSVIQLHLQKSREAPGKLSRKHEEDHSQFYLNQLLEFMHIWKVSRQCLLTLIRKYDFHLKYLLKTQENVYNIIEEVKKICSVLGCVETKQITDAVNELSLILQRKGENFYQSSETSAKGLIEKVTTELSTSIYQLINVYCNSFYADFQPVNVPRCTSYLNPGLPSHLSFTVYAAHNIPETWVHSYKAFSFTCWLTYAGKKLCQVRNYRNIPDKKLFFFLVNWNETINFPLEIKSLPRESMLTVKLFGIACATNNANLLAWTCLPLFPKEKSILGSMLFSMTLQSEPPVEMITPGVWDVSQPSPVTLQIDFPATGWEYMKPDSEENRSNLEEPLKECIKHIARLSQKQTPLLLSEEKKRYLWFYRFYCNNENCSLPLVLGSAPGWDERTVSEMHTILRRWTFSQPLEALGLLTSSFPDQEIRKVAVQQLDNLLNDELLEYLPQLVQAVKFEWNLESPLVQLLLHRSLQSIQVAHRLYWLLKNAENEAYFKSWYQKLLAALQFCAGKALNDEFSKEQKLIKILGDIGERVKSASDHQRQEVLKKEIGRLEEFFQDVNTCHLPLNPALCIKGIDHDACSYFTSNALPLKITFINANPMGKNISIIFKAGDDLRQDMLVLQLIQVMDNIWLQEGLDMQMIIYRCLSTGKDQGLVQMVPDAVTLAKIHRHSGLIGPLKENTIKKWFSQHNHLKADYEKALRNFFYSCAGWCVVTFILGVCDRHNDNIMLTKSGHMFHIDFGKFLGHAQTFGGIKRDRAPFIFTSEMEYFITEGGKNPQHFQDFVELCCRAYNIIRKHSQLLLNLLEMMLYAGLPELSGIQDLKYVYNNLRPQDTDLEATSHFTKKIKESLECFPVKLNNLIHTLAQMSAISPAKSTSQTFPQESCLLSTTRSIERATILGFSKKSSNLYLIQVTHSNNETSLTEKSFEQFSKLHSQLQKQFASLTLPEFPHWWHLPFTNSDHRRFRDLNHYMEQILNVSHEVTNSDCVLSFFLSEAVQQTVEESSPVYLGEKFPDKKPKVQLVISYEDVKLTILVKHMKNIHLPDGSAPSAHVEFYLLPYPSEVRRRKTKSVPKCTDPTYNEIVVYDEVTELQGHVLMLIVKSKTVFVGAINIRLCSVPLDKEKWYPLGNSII

[4] = molecular target: Serine/threonine-protein kinase 38-like (Homo sapiens) (UniProt Q9Y2H1); experiment: Inhibition of NDR2 (unknown origin) assessed as remaining activity at 15 uM incubated for 1 hr by KINOMEscan competitive binding assay relative to control
[5] = test system: Phosphatidylinositol 4,5-bisphosphate 3-kinase catalytic subunit alpha isoform (Homo sapiens), P42336 [E545A]; experiment: Inhibition of PIK3CA E545A mutant (unknown origin) assessed as remaining activity at 15 uM incubated for 1 hr by KINOMEscan competitive binding assay relative to control
[6] = molecular target: Casein kinase II subunit alpha' (Homo sapiens) (UniProt P19784); experiment: Inhibition of CSNK2A2 (unknown origin) assessed as remaining activity at 15 uM incubated for 1 hr by KINOMEscan competitive binding assay relative to control
[7] = test system: Phosphatidylinositol 4,5-bisphosphate 3-kinase catalytic subunit alpha isoform (Homo sapiens), P42336 [C420R]; experiment: Inhibition of PIK3CA C420R mutant (unknown origin) assessed as remaining activity at 15 uM incubated for 1 hr by KINOMEscan competitive binding assay relative to control
[8] = test system: Phosphatidylinositol 4,5-bisphosphate 3-kinase catalytic subunit alpha isoform (Homo sapiens), P42336 [E542K]; experiment: Inhibition of PIK3CA E542K mutant (unknown origin) assessed as remaining activity at 15 uM incubated for 1 hr by KINOMEscan competitive binding assay relative to control
[9] = test system: Phosphatidylinositol 4,5-bisphosphate 3-kinase catalytic subunit alpha isoform (Homo sapiens), P42336 [H1047L]; experiment: Inhibition of PIK3CA H1047L mutant (unknown origin) assessed as remaining activity at 15 uM incubated for 1 hr by KINOMEscan competitive binding assay relative to control
[10] = molecular target: Phosphatidylinositol 4-phosphate 3-kinase C2 domain-containing subunit beta (Homo sapiens) (UniProt O00750); experiment: Inhibition of PIK3C2B (unknown origin) assessed as remaining activity at 15 uM incubated for 1 hr by KINOMEscan competitive binding assay relative to control
[11] = test system: Phosphatidylinositol 4,5-bisphosphate 3-kinase catalytic subunit alpha isoform (Homo sapiens), P42336 [I800L]; experiment: Inhibition of PIK3CA I800L mutant (unknown origin) assessed as remaining activity at 15 uM incubated for 1 hr by KINOMEscan competitive binding assay relative to control

Activity [1] | Activity [2] | Activity [3] | Activity [4] | Activity [5] | Activity [6] | Activity [7] | Activity [8] | Activity [9] | Activity [10] | Activity [11] | SMILES
95% | 44% | 75% | 17% | 100% | 100% | 94% | 98% | 80% | 100% | 91% | CC(C)CCOc1ccc2c(=O)c(-c3ccc(O)c(O)c3)coc2c1
86% | 14% | 57% | 48% | 100% | 52% | 87% | 93% | 69% | 91% | 98% | CC(C)CC(=O)Oc1ccc2occ(-c3ccc(O)c(O)c3)c(=O)c2c1
